Measurements as given in US20230416275A1, “MODULATORS OF CYSTIC FIBROSIS TRANSMEMBRANE CONDUCTANCE REGULATOR” (VERTEX PHARMACEUTICALS INCORPORATED, priority 2020, published 2023).

Biological target: CFTR-mediated chloride transport in human intestinal epithelial enteroid cells (Homo sapiens, UniProt P13569)
Assay: Membrane potential dye, Enteroid Assay A
Type: cell-based
Settings: for Ent. A Max Activity (%): % of chloride transport of triple combination control (3 μM N-[(6-amino-2-pyridyl)sulfonyl]-6-(3-fluoro-5-isobutoxy-phenyl)-2-[(4S)-2,2,4-trimethylpyrrolidin-1-yl]pyridine-3-carboxamide, 3 μM tezacaftor, 300 nM acute ivacaftor); for EC50: enteroid cells, 18-24 hours incubation, acute 10 μM forskolin and 300 nM ivacaftor, read-out: Ent. A EC50
Method: Base medium (ADF+++) consisted of Advanced DMEM/Ham's F12, 2 mM Glutamax, 10 mM HEPES, […] penicillin/streptomycin.
Intestinal enteroid maintenance medium (IEMM) consisted of ADF+++, 1×B27 supplement, 1×N2 supplement, 1.25 mM N-acetyl cysteine, 10 mM Nicotinamide, 50 ng/mL hEGF, 10 nM Gastrin, 1 μg/mL hR-spondin-1, 100 ng/mL hNoggin, TGF-b type 1 inhibitor A-83-01, 100 μg/mL Primocin, 10 μM P38 MAPK inhibitor SB202190.
Bath 1 Buffer consisted of 1 mM MgCl2, 160 mM NaCl, 4.5 mM KCl, 10 mM HEPES, 10 mM Glucose, 2 mM CaCl2.
Chloride Free Buffer consisted of 1 mM Magnesium Gluconate, 2 mM Calcium Gluconate, 4.5 mM Potassium Gluconate, 160 mM Sodium Gluconate, 10 mM HEPES, 10 mM Glucose.
Bath1 Dye Solution consisted of Bath 1 Buffer, 0.04% Pluronic F127, 20 μM Methyl Oxonol, 30 μM CaCCinh-A01, 30 μM Chicago Sky Blue.
Chloride Free Dye Solution consisted of Chloride Free Buffer, 0.04% Pluronic F127, 20 μM Methyl Oxonol, 30 μM CaCCinh-A01, 30 μM Chicago Sky Blue.
Chloride Free Dye Stimulation Solution consisted of Chloride Free Dye Solution, 10 μM forskolin, 100 μM IBMX, and 300 nM Compound III.
Human intestinal epithelial enteroid cells were obtained from the Hubrecht Institute for Developmental Biology and Stem Cell Research, Utrecht, The Netherlands and expanded in T-Flasks as previously described (Dekkers J F, Wiegerinck C L, de Jonge H R, Bronsveld I, Janssens H M, de Winter-de Groot K M, Brandsma A M, de Jong N W M, Bijvelds M J C, Scholte B J, Nieuwenhuis E E S, van den Brink S, Clevers H, van der Ent C K, Middendorp S and M Beekman J M. A functional CFTR assay using primary cystic fibrosis intestinal organoids. Nat Med. 2013 July; 19(7):939-45).
c. Enteroid Cell Harvesting and Seeding
Cells were recovered in cell recovery solution, collected by centrifugation at 650 rpm for 5 minutes at 4° C., resuspended in TrypLE and incubated for 5 minutes at 37° C. Cells were then collected by centrifugation at 650 rpm for 5 minutes at 4° C. and resuspended in IEMM containing 10 μM ROCK inhibitor (RI). The cell suspension was passed through a 40 μm cell strainer and resuspended at 1×10^6 cells/mL in IEMM containing 10 μM RI. Cells were seeded at 5000 cells/well into multi-well plates and incubated for overnight at 37° C., 95% humidity and 5% CO2 prior to assay.
d. Membrane Potential Dye, Enteroid Assay A
Enteroid cells were incubated with test compound in IEMM for 18-24 hours at 37° C., 95% humidity and 5% CO2. […] Briefly, cells were washed 5 times in Bath 1 Buffer. Bath 1 Dye Solution was added, and the cells were incubated for 25 minutes at room temperature. Following dye incubation, cells were washed 3 times in Chloride Free Dye Solution. Chloride transport was initiated by addition of Chloride Free Dye Stimulation Solution and the fluorescence signal was read for 15 minutes. […] Chloride transport was then expressed as a percentage of the chloride transport following treatment with 3 μM N-[(6-amino-2-pyridyl)sulfonyl]-6-(3-fluoro-5-isobutoxy-phenyl)-2-[(4S)-2,2,4-trimethylpyrrolidin-1-yl]pyridine-3-carboxamide, 3 μM (R)-1-(2,2-difluorobenzo[d][1,3]dioxol-5-yl)-N-(1-(2,3-dihydroxypropyl)-6-fluoro-2-(1-hydroxy-2-methylpropan-2-yl)-1H-indol-5-yl)cyclopropanecarboxamide and 300 nM acute N-[2,4-bis(1,1-dimethylethyl)-5-hydroxyphenyl]-1,4-dihydro-4-oxoquinoline-3-carboxamide triple combination control (% Activity).

CFTR-mediated chloride transport in human intestinal epithelial enteroid cells, sequence (P13569 with tags, fused parts or gaps DEL508-508): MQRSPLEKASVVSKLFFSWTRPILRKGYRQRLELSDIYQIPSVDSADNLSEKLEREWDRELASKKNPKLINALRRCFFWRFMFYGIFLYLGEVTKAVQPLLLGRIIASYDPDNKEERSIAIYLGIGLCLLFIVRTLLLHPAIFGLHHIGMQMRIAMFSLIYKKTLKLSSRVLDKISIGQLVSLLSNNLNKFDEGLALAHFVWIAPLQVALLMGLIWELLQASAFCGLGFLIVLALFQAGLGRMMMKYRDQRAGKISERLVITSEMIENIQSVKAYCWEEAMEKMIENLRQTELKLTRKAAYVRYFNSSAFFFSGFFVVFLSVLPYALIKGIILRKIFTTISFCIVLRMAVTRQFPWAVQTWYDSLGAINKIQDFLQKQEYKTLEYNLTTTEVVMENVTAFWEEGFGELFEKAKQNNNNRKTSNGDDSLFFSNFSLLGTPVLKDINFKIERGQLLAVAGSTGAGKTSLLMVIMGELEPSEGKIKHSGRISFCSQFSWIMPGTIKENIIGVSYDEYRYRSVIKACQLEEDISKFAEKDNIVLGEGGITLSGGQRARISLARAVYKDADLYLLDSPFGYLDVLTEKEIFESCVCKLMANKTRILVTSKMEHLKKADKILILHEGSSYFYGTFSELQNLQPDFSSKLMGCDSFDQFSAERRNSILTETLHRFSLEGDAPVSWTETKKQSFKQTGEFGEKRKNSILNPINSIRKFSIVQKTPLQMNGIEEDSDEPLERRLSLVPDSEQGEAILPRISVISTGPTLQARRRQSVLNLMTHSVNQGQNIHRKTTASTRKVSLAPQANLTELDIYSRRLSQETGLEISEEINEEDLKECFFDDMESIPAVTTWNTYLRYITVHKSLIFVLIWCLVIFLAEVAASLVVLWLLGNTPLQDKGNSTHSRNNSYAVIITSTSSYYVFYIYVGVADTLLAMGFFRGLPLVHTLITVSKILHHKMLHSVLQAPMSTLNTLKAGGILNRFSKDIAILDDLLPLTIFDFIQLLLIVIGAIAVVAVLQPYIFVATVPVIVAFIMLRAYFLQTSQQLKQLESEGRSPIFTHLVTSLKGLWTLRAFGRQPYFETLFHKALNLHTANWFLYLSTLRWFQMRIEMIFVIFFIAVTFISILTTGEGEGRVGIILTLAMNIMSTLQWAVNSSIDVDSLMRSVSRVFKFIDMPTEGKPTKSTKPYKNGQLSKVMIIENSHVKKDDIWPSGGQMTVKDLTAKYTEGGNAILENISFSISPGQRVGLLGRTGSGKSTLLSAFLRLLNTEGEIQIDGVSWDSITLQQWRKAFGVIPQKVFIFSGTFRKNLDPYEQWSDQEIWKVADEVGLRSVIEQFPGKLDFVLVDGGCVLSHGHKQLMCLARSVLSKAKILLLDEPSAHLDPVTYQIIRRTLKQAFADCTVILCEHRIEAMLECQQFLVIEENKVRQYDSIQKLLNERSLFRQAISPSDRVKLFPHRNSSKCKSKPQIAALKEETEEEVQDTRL

| Compound | Ent. A Max Activity (%) | EC50 |
| --- | --- | --- |
| CCCCCCN1C[C@@H]2C[C@H](C1)C(=O)Nc1cccc(c1)S(=O)(=O)Nc1nc(cc(-c3c(C)cccc3C)n1)O2 [Compound 41] | +++ (+++ is >60%) | < 1000 nM |
| Cc1cccc(C)c1-c1cc2nc(n1)NS(=O)(=O)c1cccc(c1)NC(=O)[C@@H]1C[C@@H](CN(CCC(C)(C)C3CC3)C1)O2 [Compound 26] | +++ (+++ is >60%) | < 1000 nM |
| Cc1cccc(C)c1-c1cc2nc(n1)NS(=O)(=O)c1cccc(c1)NC(=O)[C@@H]1C[C@H](O2)C(=O)N(CCC(C)(C)C)C1 [Compound 91] | + (+ is <30%) | 3000 to 30000 nM |
| Cc1cccc(C)c1-c1cc2nc(n1)NS(=O)(=O)c1cccc(n1)NC(=O)C1CC(CN(C(=O)OC(C)(C)C)C1)O2 (stereo not shown) [Compound 13, tert-Butyl 19-(2,6-dimethylphenyl)-8,15,15-trioxo-2-oxa-15λ^6-thia-5,9,16,18,21,22-hexaazatetracyclo[15.3.1.13,7.110,14]tricosa-1(21),10,12,14(22),17,19-hexaene-5-carboxylate] | +++ (+++ is >60%) | < 1000 nM |
| Cc1cccc(C)c1-c1cc2nc(n1)NS(=O)(=O)c1cccc(n1)NC(=O)[C@H]1C[C@H](CN(C(=O)OC(C)(C)C)C1)O2 (single isomer, unassigned) [Compound 17, tert-butyl 19-(2,6-dimethylphenyl)-8,15,15-trioxo-2-oxa-15λ^6-thia-5,9,16,18,21,22-hexaazatetracyclo[15.3.1.13,7.110,14]tricosa-1(21),10,12,14(22),17,19-hexaene-5-carboxylate] | + (+ is <30%) |  |
| Cc1cccc(C)c1-c1cc2nc(n1)NS(=O)(=O)c1cccc(c1)NC(=O)[C@@H]1C[C@H](O2)C(=O)N(CCC(C)(C)C)C1 [Compound 88] | ++ (++ is 30-60%) | 3000 to 30000 nM |
| Cc1cccc(C)c1-c1cc2nc(n1)NS(=O)(=O)c1cccc(c1)NC(=O)[C@@H]1C[C@H](O2)C(=O)N(CCC(C)(C)C)C1 [Compound 89] | + (+ is <30%) |  |
| Cc1cccc(C)c1-c1cc2nc(n1)NS(=O)(=O)c1cccc(c1)NC(=O)[C@@H]1C[C@@H](CN(Cc3ccccc3)C1)O2 [Compound 9, (3S,7R)-5-Benzyl-19-(2,6-dimethylphenyl)-2-oxa-15λ^6-thia-5,9,16,18,21-pentaazatetracyclo[15.3.1.13,7.110,14]tricosa-1(20),10,12,14(22),17(21),18-hexaene-8,15,15-trione] | +++ (+++ is >60%) | < 1000 nM |
| CCN1C[C@@H]2C[C@H](C1)C(=O)Nc1cccc(c1)S(=O)(=O)Nc1nc(cc(-c3c(C)cccc3C)n1)O2 [Compound 39] | +++ (+++ is >60%) | 3000 to 30000 nM |
| Cc1cccc(C)c1-c1cc2nc(n1)NS(=O)(=O)c1cccc(c1)NC(=O)[C@H]1C[C@H](CN1C(=O)OC(C)(C)C)O2 [Compound 79] | + (+ is <30%) |  |
| Cc1cccc(C)c1-c1cc2nc(n1)NS(=O)(=O)c1cccc(c1)NC(=O)[C@@H]1C[C@@H](CN(C(=O)OCC(C)(C)C)C1)O2 [Compound 34] | +++ (+++ is >60%) | < 1000 nM |
| Cc1cccc(C)c1-c1cc2nc(n1)NS(=O)(=O)c1cccc(c1)NC(=O)C1CC(O2)C(=O)N(CCC(C)(C)C)C1 (stereo not shown) [Compound 92] | + (+ is <30%) |  |
| Cc1cccc(C)c1-c1cc2nc(n1)NS(=O)(=O)c1cccc(c1)NC(=O)[C@@H]1C[C@@H](CN(CC3C4(CC4)C34CC4)C1)O2 [Compound 6, (3S,7R)-19-(2,6-Dimethylphenyl)-5-({dispiro[2.0.24.13]heptan-7-yl}methyl)-2-oxa-15λ^6-thia-5,9,16,18,21-pentaazatetracyclo[15.3.1.13,7.110,14]tricosa-1(21),10(22),11,13,17,19-hexaene-8,15,15-trione] | +++ (+++ is >60%) | < 1000 nM |
| Cc1cccc(C)c1-c1cc2nc(n1)NS(=O)(=O)c1cccc(c1)NC(=O)[C@@H]1C[C@@H](CN(C(=O)C3C(C)(C)C3(C)C)C1)O2 [Compound 37] | ++ (++ is 30-60%) | < 1000 nM |
| Cc1cccc(C)c1-c1cc2nc(n1)NS(=O)(=O)c1cccc(c1)NC(=O)[C@@H]1C[C@@H](CN1C(=O)OC(C)(C)C)O2 [Compound 80] | + (+ is <30%) |  |
| CCCCCOC(=O)N1C[C@@H]2C[C@H](C1)C(=O)Nc1cccc(c1)S(=O)(=O)Nc1nc(cc(-c3c(C)cccc3C)n1)O2 [Compound 35] | +++ (+++ is >60%) | < 1000 nM |
| Cc1cccc(C)c1-c1cc2nc(n1)NS(=O)(=O)c1cccc(c1)NC(=O)[C@@H]1C[C@H](O2)C(=O)N(CCC(C)(C)C)C1 [Compound 90] | ++ (++ is 30-60%) | 3000 to 30000 nM |
| Cc1cccc(C)c1-c1cc2nc(n1)NS(=O)(=O)c1cccc(c1)NC(=O)C1CC(O2)C(C)(C)N(Cc2ccccc2)C1 (single isomer, unassigned) [Compound 73, 5-Benzyl-19-(2,6-dimethylphenyl)-4,4-dimethyl-2-oxa-15λ^6-thia-5,9,16,18,21-pentaazatetracyclo[15.3.1.13,7.110,14]tricosa-1(21),10,12,14(22),17,19-hexaene-8,15,15-trione] | + (+ is <30%) | < 1000 nM |
| Cc1cccc(C)c1-c1cc2nc(n1)NS(=O)(=O)c1cccc(c1)NC(=O)[C@@H]1C[C@@H](CN(CCC3CCOCC3)C1)O2 [Compound 38] | ++ (++ is 30-60%) | 1000 to 3000 nM |
| Cc1cccc(C)c1-c1cc2nc(n1)NS(=O)(=O)c1cccc(c1)NC(=O)[C@@H]1C[C@@H](CN(CCCC(C)(C)C)C1)O2 [Compound 22] | ++ (++ is 30-60%) | < 1000 nM |
| Cc1cccc(C)c1-c1cc2nc(n1)NS(=O)(=O)c1cccc(n1)NC(=O)[C@@H]1C[C@@H](CN(C(=O)OC(C)(C)C)C1)O2 (single isomer, unassigned) [Compound 16, tert-Butyl 19-(2,6-dimethylphenyl)-8,15,15-trioxo-2-oxa-15λ^6-thia-5,9,16,18,21,22-hexaazatetracyclo[15.3.1.13,7.110,14]tricosa-1(21),10,12,14(22),17,19-hexaene-5-carboxylate] | +++ (+++ is >60%) | < 1000 nM |
| Cc1cccc(C)c1-c1cc2nc(n1)NS(=O)(=O)c1cccc(c1)NC(=O)C1CC(O2)C(=O)N(CCC(C)(C)C)C1 (stereo not shown) [Compound 93] | ++ (++ is 30-60%) |  |
| COC(=O)N1C[C@@H]2C[C@H](C1)C(=O)Nc1cccc(c1)S(=O)(=O)Nc1nc(cc(-c3c(C)cccc3C)n1)O2 [Compound 32] | +++ (+++ is >60%) | 1000 to 3000 nM |
| Cc1cccc(C)c1-c1cc2nc(n1)NS(=O)(=O)c1cccc(c1)NC(=O)[C@@H]1C[C@@H](CN(C(=O)C3(C(F)(F)F)CC3)C1)O2 [Compound 36] | +++ (+++ is >60%) | < 1000 nM |
| Cc1cccc(C)c1-c1cc2nc(n1)NS(=O)(=O)c1cccc(c1)NC(=O)[C@@H]1C[C@@H](CN(CC3C(C)(C)C3(C)C)C1)O2 [Compound 31] | ++ (++ is 30-60%) | < 1000 nM |
| Cc1cccc(C)c1-c1cc2nc(n1)NS(=O)(=O)c1cccc(c1)NC(=O)[C@@H]1C[C@@H](CN(CC(C)C(F)(F)F)C1)O2 (stereo partly shown) [Compound 29] | +++ (+++ is >60%) | < 1000 nM |
